Legend:
PP2A [1] = biological target: T1, PP2A (Homo sapiens, UniProt P67775); test: Phosphatase activity of PP2A using phosphorylase a as substrate; type: biochemical; settings: un-methylated PP2A, protein substrate phosphorylase a, absence of ME and MT
T1 construct: made in house
Protocol: After the reaction, proteins were precipitated by 50% (NH4)2SO4 (final concentration) twice, and collected by centrifugation. The pellet was re-dissolved and dialyzed in a buffer containing 50 mM Tris-HCl (pH6.9) and ImM DTT for 2×2 L at 4° C. overnight. Phosphorylase a (phospho-phosphorylase b) crystallized during the dialysis. The dialysate was centrifuged 14,000 r.p.m at 4° C. for 30 minutes, the supernatant was removed and purified ^32P-labelled phosphorylase a was re-dissolved in +50% glycerol, and stored at −20° C.
To measure PP2A's phosphatase activity, PP2A (5-20 nM) was incubated with phosphorylase a (5-10 μM) at 37° C. 10% TCA (final concentration) and was added to the reaction to precipitate proteins. Supernatant that contains free ^32P-phosphate group was added into scintillation counting solution (Ecoscint, National Diagnostics), and counted by scintillation counter (LS 6000SE, Beckman).

[2] = biological target: T2, protein phosphatase 2A specific methyltransferase (MTase) (Homo sapiens, UniProt Q9UIC8); test: PP2A methylation in 96-well plate format (methyltransferase activity); type: biochemical; settings: purified PP2A, MTase and [3H]-SAM; read-out: MT (IC50)
T2 construct: His; made in house
Protocol: Purified PP2A, MTase and [^3H]-SAM, were incubated in reaction buffer at 37° C. At the end of the reaction, mixture was added onto the membranes of 96-well filter plate (Multiscreen™, Millipore). The membranes were then pre-wetted with 70% ethanol (50 μL/well) and then subsequently washed with water (2×200 μL/well). The reaction in each well was terminated and the proteins (5 μL-20 μL) were precipitated by adding 25% ice-cold TCA. The plate was kept on ice for 30 minutes to ensure completion of protein precipitation. Excess of the free SAM was then removed by washing with 5% cold TCA ([…]) and 70% cold ethanol (2×100 μL/well). Membranes were air-dried, radioactivity in each well was counted by TopCount^NXT scintillation counter (Packard) with 25 μL/well of Microsinct™ 20 (PerkinElmer).

phosphorylated Tau = test: Phosphorylated tau in vivo at four weeks (pS396 Western blot of brain); parameters: species or system mice; settings: 0.1% in chow, phospho-Serine 396
Protocol: Swiss Webster mice (9-12 weeks old) were fed ad libitum, either standard rodent chow (Control), or rodent chow formulated with 0.1 g Compound I-63 per 100 g chow (0.1% Compound I-63) or 0.1 g Compound I-62 per 100 g chow (0.1% Compound I-62); water was changed weekly. Mice were housed at 23° C., on a 12 hour light and dark cycle, with 6 mice per cage. At 4 weeks, six mice from the Control, 0.1% Compound I-63 and 0.1% Compound I-62 groups were sacrificed by cervical dislocation, brains removed, snap-frozen in liquid nitrogen, and stored at −80° C. Brains were homogenized in 350 pi of buffer containing 20 mM MOPS-Na, pH 7.2, 1 mM EDTA/DTT, 0.5 mg/L of aprotinin, leupeptin and pepstatin, 100 nM okadaic acid, and clarified by centrifugation (14000 rpm, 10 min, 4° C.). Supernatant protein concentrations were measured by the Bradford method, 4 volumes of the supernatant and 1 volume of 5×SDS sample buffer were mixed and boiled for 2 minutes. Boiled homogenate ([…]) were loaded on 12% polyacrylamide gels, and transferred to nitrocellulose membranes. […] Protein bands were detected with the ECL Plus reagent (GE Healthcare) and blots scanned on a Molecular Dynamics Storm Imager. […]

[3] = biological target: T3, protein phosphatase specific protein methylesterase (MEase) (Homo sapiens, UniProt Q9Y570); test: PP2A demethylation with [3H]-SAM and purified proteins (methylesterase activity); type: biochemical; settings: purified methylated PP2A and MEase; read-out: ME (IC50)
T3 construct: made in house
T3 sequence (Q9Y570 1-386): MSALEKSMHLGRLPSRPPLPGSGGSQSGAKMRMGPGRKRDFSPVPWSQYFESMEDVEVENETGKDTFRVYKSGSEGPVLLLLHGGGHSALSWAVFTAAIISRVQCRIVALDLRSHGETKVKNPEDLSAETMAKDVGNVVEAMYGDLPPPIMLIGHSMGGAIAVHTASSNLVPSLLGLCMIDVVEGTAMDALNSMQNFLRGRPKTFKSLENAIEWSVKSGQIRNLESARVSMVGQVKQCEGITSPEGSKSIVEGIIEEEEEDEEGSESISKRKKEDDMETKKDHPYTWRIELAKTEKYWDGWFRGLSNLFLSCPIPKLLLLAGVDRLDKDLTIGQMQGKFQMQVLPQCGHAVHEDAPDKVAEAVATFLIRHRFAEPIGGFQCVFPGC
Protocol: PP2A (methylated and unmethylated) were eluted with 1.6 mL of Buffer A containing 350 mM NaCl. Fractions (0.2 mL each) were collected and the radioactivity in each fraction was measured using the scintillation counter (LS 6000SE, Beckman). Fractions with highest radioactivity were containing purified methylated PP2A were pooled with a total volume of 0.6 mL-0.8 mL. Purified methylated PP2A (50 nM-100 nM) was incubated with MEase (5 nM-20 nM) in 20 μl-50 μl reaction at room temperature for 30 minutes. The reaction was terminated by adding TCA (2 μl-6 μl) to a final concentration of 10%. Released [^3H]-methanol in supernatants was counted with scintillation counter (LS 6000SE, Beckman).

PP2A [4] = biological target: T1, PP2A; test: Phosphatase activity of PP2A using pNPP as substrate; type: biochemical; settings: un-methylated PP2A, non-protein substrate pNPP, absence of ME and MT
Protocol: PP2A (10-200 nM) and pNPP (5-10 mM, Sigma) were mixed into 96-well plate (Fisher Scientific Inc.) in 50 μL of the buffer required. Reactions were performed at room temperature, and fully stopped by adding equal volume of 0.1 M EDTA. Production of p-nitrophenol […] was quantified by absorbance of reaction mixtures at 405 nm using the VMax® microplate reader (Molecular Devices).

[5] = system: MPTP Mouse Model of Parkinson's Disease; test: MPTP-induced neurotoxicity in MPTP mouse model of Parkinson's disease (striatal tyrosine hydroxylase ELISA); type: in vivo, C57BL/6J mice; settings: mice on control diets, relative to saline-injected mice
Excerpt: MPTP (1-methyl-4-phenyl-1,2,3,6-tetrahydropyridine) is routinely used as a chemical agent that induces Parkinson's disease-like neurodegeneration in cellular and animal models. Both Parkinson's Disease and MPTP-induced neurotoxicity are associated with a number of different biomarkers including reduction of tyrosine hydroxylase levels and activity. Tyrosine hydroxylase is a key enzyme in the dopamine biosynthesis pathway as it is involved in the conversion of tyrosine to […]. Tyrosine hydroxylase activity is regulated by its phosphorylation status and PP2A is known to be involved in this regulation.
C57BL/6J mice, aged 2-3 months were fed ad libitum, either standard rodent chow (Control), or rodent chow formulated with 0.1 g Compound I-63, or 0.001 g Compound I-63 per 100 g chow (0.1% and 0.001% Compound I-63, respectively); water was changed weekly. Mice were housed at 23° C., on a 12 hour light and dark cycle, with 6 mice per cage. After 2 weeks, 8-12 mice each from the Control, 0.1% Compound 1-63 and 0.001% Compound I-63 groups were injected with either saline, or 10 mg/kg MPTP i.e., four times, every 2 hours, on the same day. Mice were then maintained on their respective feeds for another week, at which point they were sacrificed by cervical dislocation and brains dissected for biochemical analyses.
Striatal tyrosine hydroxylase (TH) content was measured by ELISA as follows. Ninety-six well microliter plates (Thermo Labsystems) were incubated overnight at 4° C. with monoclonal anti-TH antibody (1:500; Calbiochem) in 8 mM sodium phosphate, 2 mM potassium phosphate, and 0.14 M sodium chloride, pH 7.4 (PBS). Wells were washed four times with PBS and then blocked for 1 hour using 5% (w/v) Carnation (Nestle) nonfat dry milk in PBS. Striatal tissue samples were homogenized by sonication in PBS-0.5% Triton X-100 (PBST) with 0.25% (w/v) SDS. […] The reaction product was measured fluorometrically within the linear range of detection (excitation:emission ratio of 530:580 nm). […] Data were expressed as percent TH levels in MPTP-treated mice relative to saline-injected mice. […]

Ob/Ob Mice = test: Non-fasted glucose levels in ob/ob mice; type: in vivo; settings: homozygous obese mice, compound in diet for 14 days
Excerpt: They are also hypometabolic and hypothermic. The obesity is characterized by an increase in both the number and the size of adipocytes. Although hyperphagia contributes to the obesity, homozygotes gain excess weight and deposit excess fat even when restricted to a diet sufficient for normal weight maintenance in lean mice. Mice heterozygous for the Lep^ob mutation appear like wild-type and are lean.
Forty-eight (48) B6.V-Lep^ob/J mice (00632, The Jackson Laboratory, JAX^6 mice), homozygous for the Lep^ob mutation and thirty six (36) controls B6.V-Lep^ob/J-lean, heterozygous for the Lep^ob mutation were used to study the effect of SIG1012 on non-fasted glucose levels. The mice were ear notched for identification and housed in individually and positively ventilated polycarbonate cages with HEPA filtered air at a density of 3 mice per cage. Bed-o-cob corn cob bedding was used and cages were changed every two weeks. The animal room was lighted entirely with artificial fluorescent lighting, with a controlled 12 h light/dark cycle (7 am to 7 pm light). The normal temperature and relative humidity ranges in the animal rooms were 22±4° C. and 50±15%, respectively. The animal rooms were set to have 15 air exchanges per hour. Filtered tap water, acidified to a pH of 2.8 to 3.2, and LabDiet AIN-76A was provided ad libitum.
Following acclimation, mice were assigned to groups A through G according to their body weight and genotype:
A Lean heterozygotes—B6.V-Lep^ob/J-lean Mice Fed Control Diet (AIN-76A);
B Lean heterozygotes—B6.V-Lep^ob/J-lean Mice Fed “Low” Compound I-63 (AIN-76A with 0.001% Compound I-63);
C Lean heterozygotes—B6.V-Lep^ob/J-lean Mice Fed “Medium” Compound I-63 (AIN-76A with 0.1% Compound I-63);
D Obese homozygotes—B6. V-Lep^ob/J Mice Fed Control Diet (AIN-76A);
E Obese homozygotes—B6N-Lep^ob/J Mice Fed “Low” Compound I-63 (AIN-76A with 0.001% Compound I-63); […]
Mice from Groups A through G were maintained on the respective diet for 14 days and blood glucose levels were measured weekly.

T2 sequence (Q9UIC8 whole entry): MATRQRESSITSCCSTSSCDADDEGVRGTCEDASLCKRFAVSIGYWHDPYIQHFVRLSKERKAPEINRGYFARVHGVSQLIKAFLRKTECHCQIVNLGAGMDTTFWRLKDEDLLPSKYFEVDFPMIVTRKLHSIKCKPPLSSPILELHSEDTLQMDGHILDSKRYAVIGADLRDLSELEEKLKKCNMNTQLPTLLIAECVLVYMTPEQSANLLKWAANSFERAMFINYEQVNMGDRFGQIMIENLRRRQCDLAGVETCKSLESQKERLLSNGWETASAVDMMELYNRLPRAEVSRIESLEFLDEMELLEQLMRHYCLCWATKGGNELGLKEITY
T1 sequence (P67775 whole entry): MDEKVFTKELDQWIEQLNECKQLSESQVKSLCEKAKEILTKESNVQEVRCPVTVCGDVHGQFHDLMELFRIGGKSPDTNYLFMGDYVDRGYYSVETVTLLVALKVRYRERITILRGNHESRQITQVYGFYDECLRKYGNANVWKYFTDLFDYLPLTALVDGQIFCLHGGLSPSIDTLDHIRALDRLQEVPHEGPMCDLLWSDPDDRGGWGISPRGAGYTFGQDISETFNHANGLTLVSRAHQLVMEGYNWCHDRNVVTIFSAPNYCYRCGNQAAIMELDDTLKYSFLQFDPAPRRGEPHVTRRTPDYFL
T1 sequence (P30153 whole entry partner): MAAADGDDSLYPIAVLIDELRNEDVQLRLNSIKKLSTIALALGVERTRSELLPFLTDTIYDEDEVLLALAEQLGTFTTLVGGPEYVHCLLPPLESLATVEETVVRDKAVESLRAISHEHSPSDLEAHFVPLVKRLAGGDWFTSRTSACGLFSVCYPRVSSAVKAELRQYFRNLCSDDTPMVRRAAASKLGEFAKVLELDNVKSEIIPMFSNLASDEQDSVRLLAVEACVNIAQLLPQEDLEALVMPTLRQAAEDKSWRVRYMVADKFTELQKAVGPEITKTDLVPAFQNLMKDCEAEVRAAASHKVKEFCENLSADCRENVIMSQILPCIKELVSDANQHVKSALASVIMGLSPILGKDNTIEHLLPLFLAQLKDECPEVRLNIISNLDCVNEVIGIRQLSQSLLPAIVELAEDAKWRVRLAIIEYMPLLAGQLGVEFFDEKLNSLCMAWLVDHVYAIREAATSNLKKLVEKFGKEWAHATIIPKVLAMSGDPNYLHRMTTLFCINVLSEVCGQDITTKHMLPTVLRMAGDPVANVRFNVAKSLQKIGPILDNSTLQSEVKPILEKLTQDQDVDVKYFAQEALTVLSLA

SMILES	IC50 (PP2A [1]) [µM]	IC50 [2] [µM]	lowering of phosphorylated tau levels in the brain compared to control (phosphorylated Tau) [%]	IC50 [3] [µM]	IC50 (PP2A [4]) [µM]	reduction of tyrosine hydroxylase levels [5] [%]	reduction in non-fasted blood glucose levels (Ob/Ob Mice) [%]
CCCCCCCCCCCCCCCCCCCCCC(=O)NCCc1c[nH]c2ccc(O)cc12 [Compound I-62, N-(2-(5-hydroxy-1H-indol-3-yl)ethyl)docosanamide]	> 100	10 to 100	40	10 to 100	10 to 100		
CCCCCCCCCCCCCCCCCCCC(=O)NCCc1c[nH]c2ccccc12 [Compound I-64, N-(2-(1H-indol-3-yl)ethyl) icosanamide]	10 to 100	< 10		< 10	> 100		
CCCCCCCCCCCCCCCCCC(=O)NCCc1c[nH]c2ccccc12 [Compound I-65, N-(2-(1H-indol-3-yl)ethyl)stearamide]	10 to 100	< 10		< 10	> 100		
CCCCCCCCCCCCCCCCCC(=O)NCCc1c[nH]c2ccc(O)cc12 [Compound I-66, N-(2-(5-hydroxy-1H-indol-3-yl)ethyl)stearamide]	> 100	< 10		< 10	10 to 100		
CN1CC=C(c2ccccc2)CC1 [MPTP, 1-methyl-4-phenyl-1,2,3,6-tetrahydropyridine, reference compound]						60	
CN(CCOc1ccc(CC2SC(=O)NC2=O)cc1)c1ccccn1 (stereo not shown) [Rosiglitizone, reference compound]							66

From patent US10583119B2, “Compounds, compositions and methods for making the same” (Signum Biosciences, Inc., priority 2008, dated 2020)
